Laboratory results reported in patent US20200060276A1, “THIAZOLE COMPOUND AND HERBICIDE” (OAT Agrio Co., Ltd., priority 2017, published 2020).

What was measured:
Format in all cases: in vivo
Scirpus juncoides = assay: Test for Herbicidal Effect in Flooding Treatment (#1), SCIJU; conditions: flooding treatment at seeding, dose 2 kg/ha, visual observation on day 21
In short: (§1)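 Visual scores from 0 (<10% inhibition) to 5 (≥90% or complete withering) were taken 21 days after treatment of glasshouse-grown plants. Seeds were sown in soil flooded for 24 h beforehand, and compound was applied dropwise onto the surface at 2 kg/ha as an acetone solution diluted in water with Tween 80.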

[1] = system: Echinochloa crus-galli (L.) P. Beauv. var. formosensis Ohwi; assay: Test for Herbicidal Effect in Flooding Treatment (#2), ECHDG at 2-2.5 leaf stage; conditions: for ECHDG (2-2.5L) #2 herbicidal effect (growth inhibition grade): flooding treatment at 2-2.5 leaf stage, dose 0.2 kg/ha, visual observation on day 21
In short: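 Scoring is a visual 0–5 scale of growth inhibition (0 below 10%, 5 at 90% or more or full withering), taken 21 days after treatment in a glasshouse. Dose was 0.2 kg/ha, applied as acetone/Tween 80 aqueous solution onto flooded soil once seedlings reached the 2–2.5 leaf stage.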

[2] = system: Echinochloa crus-galli (L.) P. Beauv. var. formosensis Ohwi; assay: Test for Herbicidal Effect in Flooding Treatment (#1), ECHDG; conditions: flooding treatment at seeding, dose 2 kg/ha, visual observation on day 21
In short: as §1

Cyperus microiria = assay: Test for Herbicidal Effect in Flooding Treatment (#1), CYMIC; conditions: flooding treatment at seeding, dose 2 kg/ha, visual observation on day 21
In short: as §1

SMILES	SCIJU #1 herbicidal effect (growth inhibition grade) (Scirpus juncoides)	ECHDG (2-2.5L) #2 herbicidal effect (growth inhibition grade) [1]	ECHDG #1 herbicidal effect (growth inhibition grade) [2]	CYMIC #1 herbicidal effect (growth inhibition grade) (Cyperus microiria)	inhibition at 200 g/ha ([1]; Echinochloa crus-galli, 504 h, flooding treatment (#2), ECHDG at 2-2.5 leaf stage, dose of 0.2 kg/ha, day 21, visual observation, read-out: growth inhibition effect)
COc1ccc(F)c(CS(=O)(=O)c2ncc(Cl)s2)c1Cl [Compound 1C-72]	5 (Growth inhibition effect is equal to or greater than 90%, or complete withering is achieved)	5 (Growth inhibition effect is equal to or greater than 90%, or complete withering is achieved)	5 (Growth inhibition effect is equal to or greater than 90%, or complete withering is achieved)	5 (Growth inhibition effect is equal to or greater than 90%, or complete withering is achieved)	
CC(C)Oc1cc(F)c(CS(=O)(=O)c2ncc(Cl)s2)c(F)c1 [Compound 1C-111]	5 (Growth inhibition effect is equal to or greater than 90%, or complete withering is achieved)	5 (Growth inhibition effect is equal to or greater than 90%, or complete withering is achieved)	5 (Growth inhibition effect is equal to or greater than 90%, or complete withering is achieved)	5 (Growth inhibition effect is equal to or greater than 90%, or complete withering is achieved)	
CCOc1c(Cl)cc(CS(=O)(=O)c2ncc(Cl)s2)cc1Cl [Compound 1C-106]	5 (Growth inhibition effect is equal to or greater than 90%, or complete withering is achieved)	3 (Growth inhibition effect equal to or greater than 50%, and less than 70%)	5 (Growth inhibition effect is equal to or greater than 90%, or complete withering is achieved)	5 (Growth inhibition effect is equal to or greater than 90%, or complete withering is achieved)	
CCOc1cccc(Cl)c1CS(=O)(=O)c1ncc(Cl)s1 [Compound 1C-20]	5 (Growth inhibition effect is equal to or greater than 90%, or complete withering is achieved)	5 (Growth inhibition effect is equal to or greater than 90%, or complete withering is achieved)	5 (Growth inhibition effect is equal to or greater than 90%, or complete withering is achieved)	5 (Growth inhibition effect is equal to or greater than 90%, or complete withering is achieved)	≥ 90%
CCOc1ccc(Br)cc1CS(=O)(=O)c1ncc(Cl)s1 [Compound 1C-17]	5 (Growth inhibition effect is equal to or greater than 90%, or complete withering is achieved)	5 (Growth inhibition effect is equal to or greater than 90%, or complete withering is achieved)	5 (Growth inhibition effect is equal to or greater than 90%, or complete withering is achieved)	5 (Growth inhibition effect is equal to or greater than 90%, or complete withering is achieved)	
CCOc1ccc(CS(=O)(=O)c2ncc(Cl)s2)cc1Cl [Compound 1C-96]	5 (Growth inhibition effect is equal to or greater than 90%, or complete withering is achieved)	4 (Growth inhibition effect is equal to or greater than 70%, and less than 90%)	5 (Growth inhibition effect is equal to or greater than 90%, or complete withering is achieved)	5 (Growth inhibition effect is equal to or greater than 90%, or complete withering is achieved)	
CCOc1ccc(Cl)c(CS(=O)(=O)c2ncc(Cl)s2)c1 [Compound 1C-80]	5 (Growth inhibition effect is equal to or greater than 90%, or complete withering is achieved)	5 (Growth inhibition effect is equal to or greater than 90%, or complete withering is achieved)	5 (Growth inhibition effect is equal to or greater than 90%, or complete withering is achieved)	5 (Growth inhibition effect is equal to or greater than 90%, or complete withering is achieved)	
COc1c(F)c(F)cc(CS(=O)(=O)c2ncc(Cl)s2)c1F [Compound 1C-74]	5 (Growth inhibition effect is equal to or greater than 90%, or complete withering is achieved)	3 (Growth inhibition effect equal to or greater than 50%, and less than 70%)	5 (Growth inhibition effect is equal to or greater than 90%, or complete withering is achieved)	5 (Growth inhibition effect is equal to or greater than 90%, or complete withering is achieved)	
CN(C)c1cc(Cl)cc(CS(=O)(=O)c2ncc(Cl)s2)c1Cl [Compound 1C-170]	5 (Growth inhibition effect is equal to or greater than 90%, or complete withering is achieved)	5 (Growth inhibition effect is equal to or greater than 90%, or complete withering is achieved)	5 (Growth inhibition effect is equal to or greater than 90%, or complete withering is achieved)	5 (Growth inhibition effect is equal to or greater than 90%, or complete withering is achieved)	
CCOc1ccc(CS(=O)(=O)c2ncc(Cl)s2)cc1F [Compound 1C-95]	5 (Growth inhibition effect is equal to or greater than 90%, or complete withering is achieved)	3 (Growth inhibition effect equal to or greater than 50%, and less than 70%)	5 (Growth inhibition effect is equal to or greater than 90%, or complete withering is achieved)	5 (Growth inhibition effect is equal to or greater than 90%, or complete withering is achieved)	
CCOc1ccc(C)cc1CS(=O)(=O)c1ncc(Cl)s1 [Compound 1C-18]	5 (Growth inhibition effect is equal to or greater than 90%, or complete withering is achieved)	5 (Growth inhibition effect is equal to or greater than 90%, or complete withering is achieved)	5 (Growth inhibition effect is equal to or greater than 90%, or complete withering is achieved)	5 (Growth inhibition effect is equal to or greater than 90%, or complete withering is achieved)	
CCOc1cc(CS(=O)(=O)c2ncc(Cl)s2)ccc1F [Compound 1C-76]	5 (Growth inhibition effect is equal to or greater than 90%, or complete withering is achieved)	4 (Growth inhibition effect is equal to or greater than 70%, and less than 90%)	5 (Growth inhibition effect is equal to or greater than 90%, or complete withering is achieved)	5 (Growth inhibition effect is equal to or greater than 90%, or complete withering is achieved)	
